Consider twelve compounds from patent publication US5502035A, “N-terminus modified analogs of LHRH” (Tap Holdings Inc., priority 1994, dated 1996).

Non-standard residues stand in square brackets, D forms with d. Residues, ends and D or L forms follow the SMILES beside them. *: point of attachment. Shikimoyl = O=C(C1=C[C@@H](O)[C@@H](O)[C@H](O)C1)*; dPhe(4-Cl) = N[C@H](Cc1ccc(Cl)cc1)C(=O)O; d2Nal = N[C@H](Cc1ccc2ccccc2c1)C(=O)O; NMeY = CN[C@@H](Cc1ccc(O)cc1)C(=O)O; d3Pal = N[C@H](Cc1cccnc1)C(=O)O; Nicotinoyl = O=C(c1cccnc1)*; Sar = CNCC(=O)O

The experiment deals with T1, LHRH (Rattus norvegicus, UniProt P30969).
T1 construct: endogenous in cells; host or cells: rat pituitary cells (own knowledge of the cited Haviv 1989 method)
T1 sequence (P30969 1-327): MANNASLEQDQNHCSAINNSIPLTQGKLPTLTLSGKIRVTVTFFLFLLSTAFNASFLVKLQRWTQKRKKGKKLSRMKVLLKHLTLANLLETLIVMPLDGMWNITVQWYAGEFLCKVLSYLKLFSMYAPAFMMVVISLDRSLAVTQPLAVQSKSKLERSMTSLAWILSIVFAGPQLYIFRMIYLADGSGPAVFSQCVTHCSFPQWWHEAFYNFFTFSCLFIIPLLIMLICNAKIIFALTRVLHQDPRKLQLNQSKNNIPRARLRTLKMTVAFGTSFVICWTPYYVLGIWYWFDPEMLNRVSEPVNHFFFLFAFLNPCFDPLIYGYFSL
Kind of experiment: in vitro test for LHRH antagonist potency (pA2). It counts as cell-based. Particulars: negative logarithm of the antagonist concentration required to shift the response curve produced by the agonist leuprolide to two-fold higher concentration. The procedure, abridged: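 Antagonism read against the agonist leuprolide on rat LHRH receptor; value is pA2, the −log of antagonist concentration that doubles the agonist concentration needed for the same response.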

Take `CC(C)C[C@H](NC(=O)[C@@H](CCCCNC(=O)C1=C[C@@H](O)[C@@H](O)[C@H](O)C1)NC(=O)[C@H](Cc1ccc(O)cc1)N(C)C(=O)[C@H](CO)NC(=O)[C@@H](Cc1cccnc1)NC(=O)[C@@H](Cc1ccc(Cl)cc1)NC(=O)[C@@H](Cc1ccc2ccccc2c1)NC(=O)CN(C)C(=O)c1cccnc1)C(=O)N[C@@H](CCCNC(=N)N)C(=O)N1CCC[C@H]1C(=O)N[C@H](C)C(N)=O` [Example 14a, N-Nicotinyl-Sar-D2Nal-D4ClPhe-D3Pal-Ser-NMeTyr-DLys(Shik)-Leu-Arg-Pro-DAlaNH2] (Nicotinoyl-[Sar][d2Nal][dPhe(4-Cl)][d3Pal]S[NMeY][dK](Shikimoyl)LRP[dA]-NH2): the Kb (usually the affinity of an antagonist, worked out from how it opposes an agonist) is 0.0132 nM.

For the compound `CC(C)C[C@H](NC(=O)[C@@H](CCCCNC(=O)C1=C[C@@H](O)[C@@H](O)[C@H](O)C1)NC(=O)[C@H](Cc1ccc(O)cc1)N(C)C(=O)[C@H](CO)NC(=O)[C@@H](Cc1cccnc1)NC(=O)[C@@H](Cc1ccc(Cl)cc1)NC(=O)[C@@H](Cc1ccc2ccccc2c1)NC(=O)CN(C)C(=O)C1=C[C@@H](O)[C@@H](O)[C@H](O)C1)C(=O)N[C@@H](CCCNC(=N)N)C(=O)N1CCC[C@H]1C(=O)N[C@H](C)C(N)=O` [Example 14b, N-Shikimyl-Sar-D2Nal-D4ClPhe-D3Pal-Ser-NMeTyr-DLys(Shik)-Leu-Arg-Pro-DAlaNH2] (Shikimoyl-[Sar][d2Nal][dPhe(4-Cl)][d3Pal]S[NMeY][dK](Shikimoyl)LRP[dA]-NH2), the Kb was 0.105 nM.

As to `CC(C)C[C@H](NC(=O)[C@@H](CCCCNC(=O)C1=C[C@@H](O)[C@@H](O)[C@H](O)C1)NC(=O)[C@H](Cc1ccc(O)cc1)N(C)C(=O)[C@H](CO)NC(=O)[C@@H](Cc1cccnc1)NC(=O)[C@@H](Cc1ccc(Cl)cc1)NC(=O)[C@@H](Cc1ccc2ccccc2c1)NC(=O)[C@@H](C)NC(=O)c1cccnc1)C(=O)N[C@@H](CCCNC(=N)N)C(=O)N1CCC[C@H]1C(=O)N[C@H](C)C(N)=O` [Example 14c, N-Nicotinyl-DAla-D2Nal-D4ClPhe-D3Pal-Ser-NMeTyr-DLys(Shik)-Leu-Arg-Pro-DAlaNH2] (Nicotinoyl-[dA][d2Nal][dPhe(4-Cl)][d3Pal]S[NMeY][dK](Shikimoyl)LRP[dA]-NH2), the Kb was 0.00537 nM.

On to `CC(C)C[C@H](NC(=O)[C@@H](CCCCNC(=O)C1=C[C@@H](O)[C@@H](O)[C@H](O)C1)NC(=O)[C@H](Cc1ccc(O)cc1)N(C)C(=O)[C@H](CO)NC(=O)[C@@H](Cc1cccnc1)NC(=O)[C@@H](Cc1ccc(Cl)cc1)NC(=O)[C@@H](Cc1ccc2ccccc2c1)NC(=O)[C@@H](C)NC(=O)C1=C[C@@H](O)[C@@H](O)[C@H](O)C1)C(=O)N[C@@H](CCCNC(=N)N)C(=O)N1CCC[C@H]1C(=O)N[C@H](C)C(N)=O` [Example 14d, N-Shikimyl-DAla-D2Nal-D4ClPhe-D3Pal-Ser-NMeTyr-DLys(Shik)-Leu-Arg-Pro-DAlaNH2] (Shikimoyl-[dA][d2Nal][dPhe(4-Cl)][d3Pal]S[NMeY][dK](Shikimoyl)LRP[dA]-NH2), for which the antagonist dissociation constant (Kb) is 0.00891 nM.

Turning to `CC(C)C[C@H](NC(=O)[C@@H](CCCCNC(=O)C1=C[C@@H](O)[C@@H](O)[C@H](O)C1)NC(=O)[C@H](Cc1ccc(O)cc1)N(C)C(=O)[C@H](CO)NC(=O)[C@@H](Cc1cccnc1)NC(=O)[C@@H](Cc1ccc(Cl)cc1)NC(=O)[C@@H](Cc1ccc2ccccc2c1)NC(=O)[C@@H](CO)NC(=O)c1cccnc1)C(=O)N[C@@H](CCCNC(=N)N)C(=O)N1CCC[C@H]1C(=O)N[C@H](C)C(N)=O` [Example 14e, N-Nicotinyl-DSer-D2Nal-D4ClPhe-D3Pal-Ser-NMeTyr-DLys(Shik)-Leu-Arg-Pro-DAlaNH2] (Nicotinoyl-[dS][d2Nal][dPhe(4-Cl)][d3Pal]S[NMeY][dK](Shikimoyl)LRP[dA]-NH2), the Kb is 0.0195 nM.

In the case of `CC(C)C[C@H](NC(=O)[C@@H](CCCCNC(=O)C1=C[C@@H](O)[C@@H](O)[C@H](O)C1)NC(=O)[C@H](Cc1ccc(O)cc1)N(C)C(=O)[C@H](CO)NC(=O)[C@@H](Cc1cccnc1)NC(=O)[C@@H](Cc1ccc(Cl)cc1)NC(=O)[C@@H](Cc1ccc2ccccc2c1)NC(=O)[C@@H](CO)NC(=O)C1=C[C@@H](O)[C@@H](O)[C@H](O)C1)C(=O)N[C@@H](CCCNC(=N)N)C(=O)N1CCC[C@H]1C(=O)N[C@H](C)C(N)=O` [Example 14f, N-Shikimyl-DSer-D2Nal-D4ClPhe-D3Pal-Ser-NMeTyr-DLys(Shik)-Leu-Arg-Pro-DAlaNH2] (Shikimoyl-[dS][d2Nal][dPhe(4-Cl)][d3Pal]S[NMeY][dK](Shikimoyl)LRP[dA]-NH2), the antagonist equilibrium constant (Kb) was 0.0355 nM.

In the case of `CC(C)C[C@H](NC(=O)[C@@H](CCCCNC(=O)C1=C[C@@H](O)[C@@H](O)[C@H](O)C1)NC(=O)[C@H](Cc1ccc(O)cc1)N(C)C(=O)[C@H](CO)NC(=O)[C@@H](Cc1cccnc1)NC(=O)[C@@H](Cc1ccc(Cl)cc1)NC(=O)[C@@H](Cc1ccc2ccccc2c1)NC(=O)[C@@H](CCCCNC(=O)c1cccnc1)NC(=O)c1cccnc1)C(=O)N[C@@H](CCCNC(=N)N)C(=O)N1CCC[C@H]1C(=O)N[C@H](C)C(N)=O` [Example 14g, N-Nicotinyl-DLys(Nic)-D2Nal-D4ClPhe-D3Pal-Ser-NMeTyr-DLys(Shik)-Leu-Arg-Pro-DAlaNH2] (Nicotinoyl-[dK](Nicotinoyl)[d2Nal][dPhe(4-Cl)][d3Pal]S[NMeY][dK](Shikimoyl)LRP[dA]-NH2), the Kb is 0.11 nM.

On to `CC(C)C[C@H](NC(=O)[C@@H](CCCCNC(=O)C1=C[C@@H](O)[C@@H](O)[C@H](O)C1)NC(=O)[C@H](Cc1ccc(O)cc1)N(C)C(=O)[C@H](CO)NC(=O)[C@@H](Cc1cccnc1)NC(=O)[C@@H](Cc1ccc(Cl)cc1)NC(=O)[C@@H](Cc1ccc2ccccc2c1)NC(=O)[C@@H](CCCCNC(=O)c1cccnc1)NC(=O)C1=C[C@@H](O)[C@@H](O)[C@H](O)C1)C(=O)N[C@@H](CCCNC(=N)N)C(=O)N1CCC[C@H]1C(=O)N[C@H](C)C(N)=O` [Example 14h, N-Shikimyl-DLys(Nic)-D2Nal-D4ClPhe-D3Pal-Ser-NMeTyr-DLys(Shik)-Leu-Arg-Pro-DAlaNH2] (Shikimoyl-[dK](Nicotinoyl)[d2Nal][dPhe(4-Cl)][d3Pal]S[NMeY][dK](Shikimoyl)LRP[dA]-NH2), for which the antagonist equilibrium constant (Kb) is 0.00417 nM.

Turning to `CC(C)C[C@H](NC(=O)[C@@H](CCCCNC(=O)C1=C[C@@H](O)[C@@H](O)[C@H](O)C1)NC(=O)[C@H](Cc1ccc(O)cc1)N(C)C(=O)[C@H](CO)NC(=O)[C@@H](Cc1cccnc1)NC(=O)[C@@H](Cc1ccc(Cl)cc1)NC(=O)[C@@H](Cc1ccc2ccccc2c1)NC(=O)[C@@H](CCCCNC(=O)C1=C[C@@H](O)[C@@H](O)[C@H](O)C1)NC(=O)c1cccnc1)C(=O)N[C@@H](CCCNC(=N)N)C(=O)N1CCC[C@H]1C(=O)N[C@H](C)C(N)=O` [Example 14i, N-Nicotinyl-DLys(Shik)-D2Nal-D4ClPhe-D3Pal-Ser-NMeTyr-DLys(Shik)-Leu-Arg-Pro-DAlaNH2] (Nicotinoyl-[dK](Shikimoyl)[d2Nal][dPhe(4-Cl)][d3Pal]S[NMeY][dK](Shikimoyl)LRP[dA]-NH2), the Kb is 0.339 nM.

For the compound `CC(C)C[C@H](NC(=O)[C@@H](CCCCNC(=O)C1=C[C@@H](O)[C@@H](O)[C@H](O)C1)NC(=O)[C@H](Cc1ccc(O)cc1)N(C)C(=O)[C@H](CO)NC(=O)[C@@H](Cc1cccnc1)NC(=O)[C@@H](Cc1ccc(Cl)cc1)NC(=O)[C@@H](Cc1ccc2ccccc2c1)NC(=O)[C@@H](CCCCNC(=O)C1=C[C@@H](O)[C@@H](O)[C@H](O)C1)NC(=O)C1=C[C@@H](O)[C@@H](O)[C@H](O)C1)C(=O)N[C@@H](CCCNC(=N)N)C(=O)N1CCC[C@H]1C(=O)N[C@H](C)C(N)=O` [Example 14j, N-Shikimyl-DLys(Shik)-D2Nal-D4ClPhe-D3Pal-Ser-NMeTyr-DLys(Shik)-Leu-Arg-Pro-DAlaNH2] (Shikimoyl-[dK](Shikimoyl)[d2Nal][dPhe(4-Cl)][d3Pal]S[NMeY][dK](Shikimoyl)LRP[dA]-NH2), the Kb was 0.759 nM.

In the case of `CC(C)C[C@H](NC(=O)[C@@H](CCCCNC(=O)C1=C[C@@H](O)[C@@H](O)[C@H](O)C1)NC(=O)[C@H](Cc1ccc(O)cc1)N(C)C(=O)[C@H](CO)NC(=O)[C@@H](Cc1cccnc1)NC(=O)[C@@H](Cc1ccc(Cl)cc1)NC(=O)[C@@H](Cc1ccc2ccccc2c1)NC(=O)CNC(=O)c1cccnc1)C(=O)N[C@@H](CCCNC(=N)N)C(=O)N1CCC[C@H]1C(=O)N[C@H](C)C(N)=O` [Example 14k, N-Nicotinyl-Gly-D2Nal-D4ClPhe-D3Pal-Ser-NMeTyr-DLys(Shik)-Leu-Arg-Pro-DAlaNH2] (Nicotinoyl-G[d2Nal][dPhe(4-Cl)][d3Pal]S[NMeY][dK](Shikimoyl)LRP[dA]-NH2), the antagonist dissociation constant (Kb) is 0.01 nM.

In the case of `CC(C)C[C@H](NC(=O)[C@@H](CCCCNC(=O)C1=C[C@@H](O)[C@@H](O)[C@H](O)C1)NC(=O)[C@H](Cc1ccc(O)cc1)N(C)C(=O)[C@H](CO)NC(=O)[C@@H](Cc1cccnc1)NC(=O)[C@@H](Cc1ccc(Cl)cc1)NC(=O)[C@@H](Cc1ccc2ccccc2c1)NC(=O)CNC(=O)C1=C[C@@H](O)[C@@H](O)[C@H](O)C1)C(=O)N[C@@H](CCCNC(=N)N)C(=O)N1CCC[C@H]1C(=O)N[C@H](C)C(N)=O` [Example 14l, N-Shikimyl-Gly-D2Nal-D4ClPhe-D3Pal-Ser-NMeTyr-DLys(Shik)-Leu-Arg-Pro-DAlaNH2] (Shikimoyl-G[d2Nal][dPhe(4-Cl)][d3Pal]S[NMeY][dK](Shikimoyl)LRP[dA]-NH2), the Kb was 0.02 nM.
